Assay [1] relates to latent HIV-1 infection in bulk population of latently infected JLTRG cells. The experiment in a line: Reactivation of latent HIV-1 in a bulk population of latently infected cells, flow cytometry. Type of assay: cell-based. The conditions noted are these: optimal concentration of each compound, day 57 bulk population, 100,000 viable cells counted. As to the method:
(A) Jurkat cells were infected with an EGFP expressing, replication incompetent reporter virus and the level of productive HIV-1 infection at each indicated time-point was directly assessed by flow cytometric analysis for EGFP expression (untreated; black circles). Levels of initial non-productive and later on latent HIV-1 infection was determined 24 hours following TNF-α stimulation (black squares). The results represent the mean ±S.D. of three independent experiments.
a) Quantification of the HIV-1 reactivating capabilities of test compounds. Following infection, HIV-1 integrates into the cellular genome. Integration is random, although HIV-1 preferentially integrates into euchromatin structures. Latency development can be thus influenced by a multitude of factors that alter gene expression or DNA structure, such as divergent gene expression patterns or the cell cycle stage at the time point of viral integration. Although the reporter cell lines are representative for the majority of latently infected cells and reliably identify most reactivating agents during the screening effort, they can not allow quantification of the capability of the individual compounds to reactivate HIV-1 infection from a diverse population of latently infected cells. To account for the influence that the side of integration of a latent virus can have on a compounds ability to reactivate the virus, a bulk population of latently infected cells (FIG. 7) was established. Following infection of JLTRG cells with HIV-1 NL43, a rapid increase of the level of infection can be observed. On day 3, an average 27% of the cells were productively infected. […] Until day 15, the percentage of productively infected cells rapidly declined to 3% of the overall cell population. At this time point, an additional 5% of the cells were non-productively infected. […] Since 1×10^6 cells were initially infected, and virus mediated inhibition of cell proliferation influences the relative level of infection over time can be excluded, it can be calculated that the latently infected cell population should consist of […] individual latently infected cells. This bulk population of cells allows quantification of the capability of the respective compounds to reactivate latent HIV-1. […] Each compound was titrated over a two-log concentration range to allow for optimal reactivation. The results for the optimal concentration of each compound are depicted in FIG. 7B. […] TNF-α (10 ng/ml) reactivated latent HIV-1 infection in 5% of the cells, whereas the DNA histone deacetylase inhibitors trichostatin A (TSA) and sodium butyrate (NaBu) reactivated latent HIV-1 infection in only 3% or 2.5% of the cells, respectively. To achieve an accurate estimate of the differences in the capability of different agents to reactivate HIV-1 infection it is important to run a sufficiently high number of cells. For this flow cytometry based analysis, 100,000 cells viable per sample were counted.

Assay [2] has as its system latent HIV-1 infection in human thymocytes derived from SCID-hu (Thy/liv) mice. As to the kind of experiment: Ex vivo reactivation of latent HIV-1 in thymocytes from infected SCID-hu (Thy/Liv) mice, EYFP flow cytometry. Type of assay: cell-based. The conditions noted are these: for EYFP+ cells: 24 h after depletion of EYFP+ cells, untreated 50; for induction of latent HIV-1 expression in thymocytes: range among tissue samples of four animals. As to the method:
SCID-hu (Thy/liv) mice were infected with HIV-1 NLENY1-IRES, and thymocytes were isolated 2-4 weeks following infection. Cells were cultured for two days in the presence of AZT and indinavir to stop de novo infection and then subjected to fluorescence activated cell sorting to remove all EYFP^+ cells. Immediately following cell separation, the cells were seeded at a concentration of 1×10^6 cell/ml, cultured in supplemented RPMI 1640 to determine levels of spontaneous reactivation, stimulated with PMA, TNF-α, activating anti-CD28 antibody (clone 5D10) and the […] sodium butyrate (NaBu; two animals only). Levels of reactivation achieved in HIV-1 infected thymocytes derived from 4 different SCID-hu (Thy/liv) mice following ex vivo reactivation with the indicated stimulators are depicted as fold induction of […].
Isolation of thymocytes from SCID-hu (Thy/Liv) mice. Thy/Liv implants from the infected mice were harvested 2-4 weeks post infection and single cell suspensions generated by dissociation of the tissue. Thymocytes were isolated by Ficoll-Paque density gradient centrifugation and were cultured for two days in RPMI 1640 supplemented with 10% heat-inactivated FBS, 2 mM L-glutamine, 100 U/ml of penicillin, and 100 μg/ml of streptomycin, in the presence of indinavir and AZT, to inhibit de novo infection. Productively infected thymocytes, which expressed EYFP, were then removed from the cultures by FACS sorting. Purity of the resulting EYFP-negative cell population was determined by flow cytometric analysis for EYFP and was usually greater than 99.9%. Immediately following the sort, cells were stimulated. HIV-1 reactivation, as indicated by the de novo expression of EYFP was quantified by flow cytometry, acquiring at least 1×10^6 cells per sample in the live gate.
Reactivation of latent HIV-1 infection by anti-CD28 antibodies in human thymocytes derived from SCID-hu (Thy/liv) mice. Whether activating anti-CD28 antibody would also reactivate latent HIV-1 in a system where latency in primary cells was achieved under in vivo conditions was tested. For this purpose, a modification of the HIV-1 established SCID-hu (Thy/Liv) mouse system was used that has been previously used for the study of HIV-1 latency. Brooks et al., Nat. Med. 7:459-464 (2001). SCID-hu (Thy/Liv) mice were infected with HIV-1 NLENY1-IRES to allow for the easy and direct detection of infected cells using flow cytometry. Levy et al., Proc. Nat. Acad. Sci. 101:4204-4209 (2004). […] Levels of infection were determined by flow cytometry for EYFP, and varied in the different animals between 0.5 and 6% of the total thymocyte population. […] The cultures were then subjected to fluorescence activated cell sorting to remove all EYFP positive cells. […]
For orientation: Flow cytometry measures light scatter and fluorescence of single cells or particles in a stream.

As to `CCCCCCCCCCCCCC(=O)O[C@@H]1[C@@H](C)[C@@]2(O)[C@@H](C=C(CO)C[C@]3(O)C(=O)C(C)=C[C@@H]23)[C@@H]2C(C)(C)[C@]12OC(C)=O` [PMA, 13-phorbol-12-myristate acetate], the “cells in which latent HIV-1 infection was reactivated” value in assay [1] is recorded as 7%. For the same molecule, in assay [2], the “EYFP+ cells” value is reported as 260 cells of 1×10^6 cells and the “induction of latent HIV-1 expression in thymocytes” value was 2.5-7 fold.

As to TNF-α, the “cells in which latent HIV-1 infection was reactivated” value in assay [1] is listed as 5%. Also, in assay [2], the “EYFP+ cells” value was 250 cells of 1×10^6 cells and the “induction of latent HIV-1 expression in thymocytes” value is 3-6 fold.

These data come from patent US20080118494A1, “Compositions For Detection Of Latent Hiv Reactivation And Methods Of Using The Same” (priority 2004, published 2008).
